Experimental data reported in patent US20120270807A1, “MACROCYCLIC INHIBITORS OF SERINE PROTEASE ENZYMES” (priority 2009, published 2012).

What follows are compounds tested against human matriptase (Homo sapiens, UniProt Q9Y5Y6) (assay: Assay for inhibition of matriptase (fluorogenic substrate Boc-Gln-Ala-Arg-AMC)). Conditions: residual matriptase activity in presence of test compound; hydrolysis of Boc-Gln-Ala-Arg-AMC; 10 μM for initial screening per method.
Type: biochemical
Description: The following describes an assay for matriptase as a representative serine protease and is based upon reported methods. (Désilets, A.; Longpré, J.-M.; Beaulieu, M.-E.; Leduc, R. FEBS Lett. 2006, 580, 2227-2232.) Similar assays are applicable and available for other serine proteases.
Enzyme activities were monitored by measuring the release of fluorescence from AMC-coupled peptides (excitation, 360 nm; emission, 441 nm) in a FLX-800 TBE microplate reader (Bio-Tek Instruments, Winooski, Vt., USA). The purified human matriptase was active site titrated with the burst titrant 4-methylumbelliferyl-p-guanidino benzoate (MUGB). Enzymatic assays with matriptase were performed in Tris-HCl 100 mM containing 500 µg/mL BSA at pH 9. Human soluble furin was expressed, purified, titrated and assayed as described in the literature (Denault, J. B.; Lazure, C.; Day, R; Leduc, R. Protein Expr. Purif. 2000, 19, 113-124.) The purified HAT protein was active-site titrated with MUGB. Assays with HAT were performed in 50 mM Tris-HCl at pH 8.6.
Enzymes were diluted to concentrations ranging from 4 to 12.5 nM for furin, from 2 to 7 nM for matriptase and 20 pM for HAT and incubated with either 10 μM (for initial screening) […] or appropriate dilutions (for kinetic analysis), for example 0, 500, 1000, 2000 nM or 0, 250, 500, 1000, 2500, 5000 nM, of the test compound for 15 min at RT. Residual enzyme activity was measured by following the hydrolysis of a fluorogenic substrate (4 μM Boc-Arg-Val-Arg-Arg-AMC for furin, Boc-Gln-Ala-Arg-AMC for matriptase and 4 μM Boc-Val-Pro-Arg-AMC for HAT) (Bachem Bioscience, King of Prussia, Pa., USA). Saturation curves were performed in the presence of increasing concentrations of test compounds. Data from three independent experiments or more were typically averaged and residual velocities were plotted as a function of test compound concentration. Data were fitted by non-linear regression analysis to Equation (1) (Bieth, J. G. Methods Enzymol. 1995, 248, 59-84.) using the Enzfitter software (Biosoft, Ferguson, Mo., USA).
vi/v0=1−{([E]0+[I]0+Ki(app))−(([E]0+[I]0+Ki(app))^2−4[E]0[I]0)^1/2}/2[E]0 Equation (1): […]
where v0 and vi are the steady-state rates of substrate hydrolysis in the absence and presence of inhibitor, respectively, [E]0, the initial concentration of enzyme, [I]0, the initial concentration of inhibitor and Ki(app) the substrate-dependent equilibrium dissociation constant. The substrate-independent constant Ki was calculated using Equation (2) (Bieth, J. G. Methods Enzymol. 1995, 248, 59-84.),
Ki=Ki(app)(1+[S]0/Km) Equation (2): […]
The table presents results for matriptase inhibition for representative compounds of the invention.
Ki's can be calculated from the velocity using nonlinear regression analysis. The model used is a competitive enzyme inhibition equation where KmObs=Km*(1+[I]/Ki) and Y=Vmax*X/(KmObs+X). X is the substrate concentration. Y the velocity.

Chain of human matriptase (Q9Y5Y6 615-855 limits assumed, other chains not shown): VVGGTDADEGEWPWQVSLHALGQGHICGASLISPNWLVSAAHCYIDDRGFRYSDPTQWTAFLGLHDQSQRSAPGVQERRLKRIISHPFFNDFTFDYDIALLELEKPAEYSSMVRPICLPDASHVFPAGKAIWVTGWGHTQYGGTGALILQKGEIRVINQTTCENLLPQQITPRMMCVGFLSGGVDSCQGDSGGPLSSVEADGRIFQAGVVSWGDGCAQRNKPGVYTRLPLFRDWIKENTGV

| Compound | Velocity (FU/min) |
| --- | --- |
| C[C@@H]1CN[C@@H](C2CC2)C(=O)N(C)[C@H](C)C(=O)N[C@H](Cc2ccc(C(=N)N)cc2)C(=O)NCCCc2ccccc2O1 [Compound 459] | 140 FU/min |
| C[C@@H]1NCCOc2cc(F)ccc2CCCNC(=O)[C@@H](Cc2ccc(C(=N)N)cc2)NC(=O)[C@@H](C)N(C)C1=O [Compound 467] | 2300 FU/min |
| C[C@@H]1C(=O)N[C@H](Cc2ccc(C(=N)N)cc2)C(=O)NC/C=C/c2cccc(c2)OCCN[C@@H](C2CC2)C(=O)N1C [Compound 482] | 2500 FU/min |
| C[C@@H]1C(=O)N[C@H](CCCN)C(=O)NCCCc2ccc(F)cc2OCCN[C@@H](C2CC2)C(=O)N1C [Compound 487] | 2500 FU/min |
| C[C@@H]1C(=O)N[C@H](Cc2c[nH]cn2)C(=O)NCCCc2ccc(F)cc2OCCN[C@@H](C2CC2)C(=O)N1C [Compound 493] | 2700 FU/min |
| C[C@@H]1C(=O)N[C@H](Cc2ccncc2)C(=O)NCCCc2ccc(F)cc2OCCN[C@@H](C2CC2)C(=O)N1C [Compound 495] | 2700 FU/min |
| C[C@@H]1C(=O)N[C@H](Cc2cscn2)C(=O)NCCCc2ccc(F)cc2OCCN[C@@H](C2CC2)C(=O)N1C [Compound 496] | 2700 FU/min |
| C[C@@H]1CN[C@@H](C2CC2)C(=O)N(C)[C@H](C)C(=O)N[C@H](Cc2ccc(C(N)=O)cc2)C(=O)NCCCc2ccccc2O1 [Compound 498] | 580 FU/min |
